Assay [1] deals with OPM-2 human multiple myeloma cell line. Kind of assay: Cell Viability Assay (OPM-2 10 FBS). Type of assay: cell-based. To be noted: Homo sapiens, OPM-2, 16 h, OPM-2 cells, 16 h, CellTiter-Glo. Put shortly:
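OPM-2 myeloma cells, 3000/well in medium with 10% FBS, exposed to serially diluted compounds for 16 h at 37° C./5% CO2. Viability read by CellTiter-Glo luminescence; IC50 from 4-parameter logistic fit.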
In general terms: ATP-based viability assays read luminescence as a measure of living cells.

For assay [2], the target named is T1, Mcl-1/Bim interaction, recombinant human Mcl-1 (171-327) (Homo sapiens, UniProt Q07820).
T1 construct: made in house
T1 sequence (Q07820 171-327): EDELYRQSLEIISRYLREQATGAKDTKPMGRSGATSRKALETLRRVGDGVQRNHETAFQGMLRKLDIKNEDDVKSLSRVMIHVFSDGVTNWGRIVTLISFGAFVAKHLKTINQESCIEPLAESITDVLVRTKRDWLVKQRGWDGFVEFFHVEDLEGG
Kind of assay: Cell free Mcl-1: Bim Affinity Assay (Mcl-1 HTRF). Type of assay: binding. The note with it: cell free Mcl-1:Bim TR-FRET, recombinant human Mcl-1 (171-327). The essentials: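 Compounds were mixed with the protein and a biotinylated Bim peptide spanning human residues 51-76. Plates were left overnight, then TR-FRET signal was measured. A four-parameter sigmoidal model applied to duplicate competition data gave IC50.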
On the technique in general: Time-resolved FRET reads energy transfer from a long-lived donor to a nearby acceptor.

In the case of `COCCN1CCC/C=C/[C@H](O)[C@@H]2CC[C@H]2CN2C[C@@]3(CCCc4cc(Cl)ccc43)COc3ccc(cc32)C(=O)NS1(=O)=O` [Example 665, (1S,3′R,6′R,7′S,8′E)-6-chloro-7′-hydroxy-13′-(2-methoxyethyl)-3,4-dihydro-2H,16′H-spiro[naphthalene-1,23′-[21]oxa[14]thia[1,13,15]triazatetracyclo[15.7.2.0^3,6.0^20,25]hexacosa[8,17,19,25]tetraen]-16′-one 14′,14′-dioxide], the IC50 in assay [1] came out at 1320 nM; in assay [2], 2.89 nM.

Turning to `COC[C@H](O)CN1[C@@H](C)C/C=C/[C@H](O)[C@@H]2CC[C@H]2CN2C[C@@]3(CCCc4cc(Cl)ccc43)COc3ccc(cc32)C(=O)NS1(=O)=O` [Example 687, (1S,3′R,6′R,7′S,8′E,11′S)-6-chloro-7′-hydroxy-12′-((2R)-2-hydroxy-3-methoxypropyl)-11′-methyl-3,4-dihydro-2H,15′H-spiro[naphthalene-1,22′-[20]oxa[13]thia[1,12,14]triazatetracyclo[14.7.2.0^3,6.0^19,24]pentacosa[8,16,18,24]tetraen]-15′-one 13′,13′-dioxide], the half-maximal inhibitory concentration (IC50) turned out to be 148 nM in assay [1] and 0.207 nM in assay [2].

For `CC[C@@H]1CC/C=C/[C@H](OC)[C@@H]2CC[C@H]2CN2C[C@@]3(CCCc4cc(Cl)ccc43)COc3cc(Cl)c(cc32)C(=O)NS1(=O)=O` [Example 688, (1S,3′R,6′R,7′S,8′E,12′R)-6,17′-dichloro-12′-ethyl-7′-methoxy-3,4-dihydro-2H,15′H-spiro[naphthalene-1,22′-[20]oxa[13]thia[1,14]diazatetracyclo[14.7.2.0^3,6.0^19,24]pentacosa [8,16,18,24]tetraen]-15′-one 13′,13′-dioxide], the figures for the half-maximal inhibitory concentration (IC50) in assay [1] and in assay [2] were 13600 nM and 14.1 nM, respectively.

Regarding `O=C1NS(=O)(=O)N(Cc2ncco2)CC/C=C/[C@H](O)[C@@H]2CC[C@H]2CN2C[C@@]3(CCCc4cc(Cl)ccc43)COc3ccc1cc32` [Example 694, (1S,3′R,6′R,7′S,8′E)-6-chloro-7′-hydroxy-12′-(1,3-oxazol-2-ylmethyl)-3,4-dihydro-2H,15′H-spiro[naphthalene-1,22′-[20]oxa[13]thia[1,12,14]triazatetracyclo[14.7.2.0^3,6.0^19,24]pentacosa[8,16,18,24]tetraen]-15′-one 13′,13′-dioxide], the results for the 50% inhibitory concentration (IC50) in assay [1] and in assay [2] were 968 nM and 0.763 nM, respectively.

Turning to `CC[C@@H]1CC/C=C/[C@H](OC)[C@@H]2CC[C@H]2CN2C[C@@]3(CCCc4cc(Cl)ccc43)COc3cc(F)c(cc32)C(=O)NS1(=O)=O` [Example 701, (1S,3′R,6′R,7′S,8′E,12′R)-6-chloro-12′-ethyl-17′-fluoro-7′-methoxy-3,4-dihydro-2H,15′H-spiro[naphthalene-1,22′-[20]oxa[13]thia[1,14]diazatetracyclo[14.7.2.0^3,6.0^19,24]pentacosa [8,16,18,24]tetraen]-15′-one 13′,13′-dioxide], the IC50 in assay [1] stood at 2020 nM; in assay [2], 1.44 nM.

For `COCCO[C@H]1/C=C/C[C@H](C)[C@@H](C)S(=O)(=O)NC(=O)c2ccc3c(c2)N(C[C@@H]2CC[C@H]21)C[C@@]1(CCCc2cc(Cl)ccc21)CO3` [Example 719, (1S,3′R,6′R,7′S,8′E,11′S,12′R)-6-chloro-7′-(2-methoxyethoxy)-11′,12′-dimethyl-3,4-dihydro-2H,15′H-spiro[naphthalene-1,22′-[20]oxa[13]thia[1,14]diazatetracyclo[14.7.2.0^3,6.0^19,24]pentacosa[8,16,18,24]tetraen]-15′-one-13′, 13′-dioxide], the values for the IC50 in assay [1] and in assay [2] were 117 nM and 0.366 nM, respectively.

For `C[C@@H]1[C@@H](C)C/C=C/[C@H](OCCN2CCOCC2)[C@@H]2CC[C@H]2CN2C[C@@]3(CCCc4cc(Cl)ccc43)COc3ccc(cc32)C(=O)NS1(=O)=O` [Example 720, (1S,3′R,6′R,7′S,8′E,11′S,12′R)-6-chloro-11′,12′-dimethyl-7′-(2-(4-morpholinyl)ethoxy)-3,4-dihydro-2H,15′H-spiro[naphthalene-1,22′-[20]oxa[13]thia[1,14]diazatetracyclo[14.7.2.0^3,6.0^19,24]pentacosa [8,16,18,24]tetraen]-15′-one-13′, 13′-dioxide], the half-inhibitory concentration (IC50) in assay [1] turned out to be 54.2 nM; in assay [2] it was 0.327 nM.

On to `C[C@@H]1[C@@H](C)C/C=C/[C@H](OCCCN2CCOCC2)[C@@H]2CC[C@H]2CN2C[C@@]3(CCCc4cc(Cl)ccc43)COc3ccc(cc32)C(=O)NS1(=O)=O` [Example 721, (1S,3′R,6′R,7′S,8′E,11′S,12′R)-6-chloro-11′,12′-dimethyl-7′-(3-(4-morpholinyl)propoxy)-3,4-dihydro-2H,15′H-spiro[naphthalene-1,22′-[20]oxa[13]thia[1,14]diazatetracyclo[14.7.2.0^3,6.0^19,24]pentacosa [8,16,18,24]tetraen]-15′-one-13′, 13′-dioxide], for which the IC50 in assay [1] is 73.5 nM; in assay [2], 0.539 nM.

Turning to `C[C@@H]1[C@@H](C)C/C=C/[C@H](OCCC2CCOCC2)[C@@H]2CC[C@H]2CN2C[C@@]3(CCCc4cc(Cl)ccc43)COc3ccc(cc32)C(=O)NS1(=O)=O` [Example 722, (1S,3′R,6′R,7′S,8′E,11′S,12′R)-6-chloro-11′,12′-dimethyl-7′-(2-(tetrahydro-2H-pyran-4-yl)ethoxy)-3,4-dihydro-2H,15′H-spiro [naphthalene-1,22′-[20]oxa[13]thia[1,14]diazatetracyclo [14.7.2.0^3,6.0^19,24]pentacosa[8,16,18,24]tetraen]-15′-one-13′, 13′-dioxide], the half-inhibitory concentration (IC50) turned out to be 473 nM in assay [1] and 11.9 nM in assay [2].

Turning to `C[C@@H]1[C@@H](C)C/C=C/[C@H](OCCN2CCCCC2)[C@@H]2CC[C@H]2CN2C[C@@]3(CCCc4cc(Cl)ccc43)COc3ccc(cc32)C(=O)NS1(=O)=O` [Example 723, (1S,3′R,6′R,7′S,8′E,11′5,12′R)-6-chloro-11′,12′-dimethyl-7′-(2-(1-piperidinyl)ethoxy)-3,4-dihydro-2H,15′H-spiro[naphthalene-1,22′-[20]oxa[13]thia[1,14]diazatetracyclo[14.7.2.0^3,6.0^19,24]pentacosa [8,16,18,24]tetraen]-15′-one-13′, 13′-dioxide], the figures for the IC50 in assay [1] and in assay [2] were 138 nM and 0.485 nM, respectively.

Turning to `C[C@@H]1[C@@H](C)C/C=C\[C@H](OCCN2CCOCC2)[C@@H]2CC[C@H]2CN2C[C@@]3(CCCc4cc(Cl)ccc43)COc3ccc(cc32)C(=O)NS1(=O)=O` [Example 724, (1S,3′R,6′R,7′S,8′Z,11′S,12′R)-6-chloro-11′,12′-dimethyl-7′-(2-(4-morpholinyl)ethoxy)-3,4-dihydro-2H,15′H-spiro[naphthalene-1,22′-[20]oxa[13]thia[1,14]diazatetracyclo[14.7.2.0^3,6.0^19,24]pentacosa [8,16,18,24]tetraen]-15′-one 13′,13′-dioxide], the values for the concentration for half-maximal inhibition (IC50) in assay [1] and in assay [2] were 420 nM and 0.485 nM, respectively.

In the case of `Cc1ccc(S(=O)(=O)NCCO[C@H]2/C=C/C[C@H](C)[C@@H](C)S(=O)(=O)NC(=O)c3ccc4c(c3)N(C[C@@H]3CC[C@H]32)C[C@@]2(CCCc3cc(Cl)ccc32)CO4)cc1` [Example 726, N-(2-(((1S,3′R,6′R,7′S,8′E,11′S,12′R)-6-chloro-11′,12′-dimethyl-13′, 13′-dioxido-15′-oxo-3,4-dihydro-2H-spiro[naphthalene-1,22′-[20]oxa[13]thia[1,14]diazatetracyclo[14.7.2.0^3,6.0^19,24]pentacosa[8,16,18,24]tetraene]-7′-yl)oxy)ethyl)4-methylbenzenesulfonamide], the IC50 in assay [1] was determined as 2140 nM; in assay [2] it was 12.2 nM.

For the compound `C[C@@H]1[C@@H](C)C/C=C/[C@H](OCCN2CCOCC2=O)[C@@H]2CC[C@H]2CN2C[C@@]3(CCCc4cc(Cl)ccc43)COc3ccc(cc32)C(=O)NS1(=O)=O` [Example 727, (1S,3′R,6′R,7′S,8′E,11′S,12′R)-6-chloro-11′,12′-dimethyl-7′-(2-(3-oxo-4-morpholinyl)ethoxy)-3,4-dihydro-2H,15′H-spiro[naphthalene-1,22′-[20]oxa[13]thia[1,14]diazatetracyclo[14.7.2.0^3,6.0^19,24]pentacosa [8,16,18,24]tetraen]-15′-one-13′, 13′-dioxide], the concentration for half-maximal inhibition (IC50) in assay [1] was determined as 147 nM; in assay [2], 0.365 nM.

`C[C@@H]1[C@@H](C)C/C=C/[C@H](OCCN2CCCCC2=O)[C@@H]2CC[C@H]2CN2C[C@@]3(CCCc4cc(Cl)ccc43)COc3ccc(cc32)C(=O)NS1(=O)=O` [Example 728, (1S,3′R,6′R,7′S,8′E,11′S,12′R)-6-chloro-11′,12′-dimethyl-7′-(2-(2-oxo-1-piperidinyl)ethoxy)-3,4-dihydro-2H,15′H-spiro[naphthalene-1,22′-[20]oxa[13]thia[1,14]diazatetracyclo[14.7.2.0^3,6.0^19,24]pentacosa [8,16,18,24]tetraen]-15′-one-13′, 13′-dioxide]: the IC50 in assay [1] worked out at 268 nM; in assay [2], 0.437 nM.

For `C[C@@H]1[C@@H](C)C/C=C/[C@H](OCCN2CCOC2=O)[C@@H]2CC[C@H]2CN2C[C@@]3(CCCc4cc(Cl)ccc43)COc3ccc(cc32)C(=O)NS1(=O)=O` [Example 729, (1S,3′R,6′R,7′S,8′E,11′S,12′R)-6-chloro-11′,12′-dimethyl-7′-(2-(2-oxo-1,3-oxazolidin-3-yl)ethoxy)-3,4-dihydro-2H,15′H-spiro[naphthalene-1,22′-[20]oxa[13]thia[1,14]diazatetracyclo[14.7.2.0^3,6.0^19,24]pentacosa [8,16,18,24]tetraen]-15′-one-13′, 13′-dioxide], the half-inhibitory concentration (IC50) was 118 nM in assay [1] and 0.311 nM in assay [2].

One may read the IC50 as the concentration at which inhibition is half-maximal.

Values taken from patent US12091425B2 (AMGEN INC., priority 2016, dated 2024).
